Data published in ChEMBL document CHEMBL1123942, “Effect of acyclic pyrimidines related to 9-[(1,3-dihydroxy-2-propoxy)methyl]guanine on herpesviruses” (J Med Chem, 1988).
pIC50: −log10 of the molar value.

What was measured:
Cytomegalovirus [1] = experiment: Inhibition of growth of human cytomegalovirus (HCMV) was determined by plaque reduction assay in human lung fibroblast cell line; type: functional, organism-based; conditions: Human betaherpesvirus 5, Fibroblast
Human alphaherpesvirus 3 = experiment: Inhibition of growth of varicella zoster virus(VZV) by plaque reduction assay in vero cell line; type: functional, organism-based; conditions: Human alphaherpesvirus 3, Vero
Human alphaherpesvirus 1 [2] = experiment: (§1) Inhibition of growth of herpes simplex virus (HSV-1) by plaque reduction assay in vero cell line; type: functional, organism-based; conditions: Human alphaherpesvirus 1, Vero
Human alphaherpesvirus 2 = experiment: Inhibition of growth of herpes simplex virus (HSV-2) by plaque reduction assay in vero cell line; type: functional, organism-based; conditions: Human alphaherpesvirus 2, Vero
Cytomegalovirus [3] = experiment: Inhibition of growth of human cytomegalovirus (HCMV) by plaque reduction assay in human lung fibroblast cell line; type: functional, organism-based; conditions: Human betaherpesvirus 5, Fibroblast
Cytomegalovirus [4] = experiment: Inhibition of growth of human cytomegalovirus (HCMV) was determined by plaque reduction assay in human foreskin fibroblast cell line; type: functional, organism-based; conditions: Human betaherpesvirus 5, Fibroblast
Cytomegalovirus [5] = experiment: Inhibition of growth of human cytomegalovirus (HCMV) was determined by plaque reduction assay in Detroit cells; type: functional, organism-based; conditions: Human betaherpesvirus 5, Detroit
Human alphaherpesvirus 1 [6] = experiment: as §1; type: functional, organism-based, herpes simplex vir; conditions: Human alphaherpesvirus 1, Vero

`Nc1nc(=O)n(COC(CO)CO)cc1F` gave a pIC50 (Cytomegalovirus [1]) of 4.00.
`CN(C)c1ccn(COC(CO)CO)c(=O)n1` was tested, and the pIC50 (Cytomegalovirus [1]) was < 4.00, the pIC50 (Human alphaherpesvirus 3) was < 4.00 and the pIC50 (Human alphaherpesvirus 1 [2]) was < 4.00.
In the case of `Nc1ccn(COC(CO)CO)c(=S)n1`, the pIC50 (Cytomegalovirus [1]) was < 4.00.
In the case of `Nc1nc(=O)n(COC(CO)CO)cc1I`, the pIC50 (Cytomegalovirus [1]) was < 4.00 and the pIC50 (Human alphaherpesvirus 3) was < 4.00.
With `COC(=O)CC(CC(=O)OC)OC[n+]1ccc(N)nc1` the pIC50 (Cytomegalovirus [1]) was < 4.00.
With `Cc1cn(COC(CO)CO)c(=O)[nH]c1=O` the pIC50 (Cytomegalovirus [1]) was < 3.60 and the pIC50 (Human alphaherpesvirus 3) was < 4.00.
For `Cc1cn(COC(CO)CO)c(=O)nc1N`, the pIC50 (Cytomegalovirus [1]) was < 4.00 and the pIC50 (Human alphaherpesvirus 3) was < 4.00.
With `Nc1cn(COC(CO)CO)c(=O)[nH]c1=O` the pIC50 (Human alphaherpesvirus 3) was < 4.00.
`CNc1ccn(COC(CO)CO)c(=O)n1` was tested, and the pIC50 (Cytomegalovirus [1]) was < 4.00.
Work on `Nc1ccn(COC(CO)CO)c(=O)n1` yielded a pIC50 (Human alphaherpesvirus 2) of 4.30, a pIC50 (Human alphaherpesvirus 3) of 4.77 and a pIC50 (Cytomegalovirus [3]) of 4.95. It also gave a pIC50 (Human alphaherpesvirus 1 [2]) of 3.85.
With `O=c1[nH]c(=O)n(COC(CO)CO)cc1Br` the pIC50 (Cytomegalovirus [1]) was < 4.00 and the pIC50 (Human alphaherpesvirus 3) was < 4.00.
For `O=c1ccn(COC(CO)CO)c(=O)[nH]1`, the pIC50 (Cytomegalovirus [1]) was < 3.60 and the pIC50 (Human alphaherpesvirus 3) was < 4.00.
For `Nc1ncn(COC(CO)CO)c(=O)n1`, the pIC50 (Cytomegalovirus [1]) was 4.00, the pIC50 (Cytomegalovirus [4]) was < 4.60 and the pIC50 (Human alphaherpesvirus 2) was < 4.00.
For `Nc1nc(=O)ccn1COC(CO)CO`, the pIC50 (Cytomegalovirus [1]) was < 4.00.
In the case of `Nc1nc2c(ncn2COC(CO)CO)c(=O)[nH]1` [GANCICLOVIR], the pIC50 (Cytomegalovirus [1]) was 5.47, the pIC50 (Human alphaherpesvirus 2) was 7.00 and the pIC50 (Human alphaherpesvirus 3) was 5.55. For the same compound, the pIC50 (Human alphaherpesvirus 1 [2]) was 7.00.
`O=c1[nH]c(=O)n(COC(CO)CO)cc1I` [IODACYCLUR] was tested, and the pIC50 (Cytomegalovirus [5]) was < 4.00, the pIC50 (Human alphaherpesvirus 3) was < 4.00 and the pIC50 (Human alphaherpesvirus 1 [6]) was < 4.00.
